Tests used:
[1] = biological target: Epithelial discoidin domain-containing receptor 1 (Homo sapiens, UniProt Q08345); assay: DDR1 and DDR2 Biochemical Assay
Procedure: (§1) The capacity of compounds to bind to DDR1 and DDR2 was quantified using a LanthaScreen Eu Kinase Binding Assay. Recombinant human DDR1 (2.5 nM; aa440-876 containing a GST tag) and DDR2 (1.75 nM; aa427-855 containing a GST tag) were diluted in assay buffer (50 mM HEPES pH7.3, 10 mM MgCl2, 1 mM EGTA and 0.01% Tween) with various concentrations of compound in a 384-well plate and a volume of 5 uL. After a 30-minute incubation at room temperature, 2.5 uL of Eu-anti GST antibody (diluted to 1 nM in assay buffer) plus Kinase Tracer 178 (diluted in assay buffer to 5 nM for DDR1 and 10 nM for DDR2) were added to the plate. Following 60-minute incubation at room temperature, time-resolved fluorescence was measured on a BMG Labtech PHERAstar plate reader. DMSO (1%) and reference compound (1 μM) were used to generate the Max and Min assay signals, respectively. Data was analysed using a four-parameter logistic model to calculate IC50 values, with at least two independent replicates were performed for each compound.

[2] = biological target: T1, Discoidin domain-containing receptor 2 (Homo sapiens, UniProt Q16832); assay: DDR1 and DDR2 Biochemical Assay
T1 sequence (Q16832 whole entry): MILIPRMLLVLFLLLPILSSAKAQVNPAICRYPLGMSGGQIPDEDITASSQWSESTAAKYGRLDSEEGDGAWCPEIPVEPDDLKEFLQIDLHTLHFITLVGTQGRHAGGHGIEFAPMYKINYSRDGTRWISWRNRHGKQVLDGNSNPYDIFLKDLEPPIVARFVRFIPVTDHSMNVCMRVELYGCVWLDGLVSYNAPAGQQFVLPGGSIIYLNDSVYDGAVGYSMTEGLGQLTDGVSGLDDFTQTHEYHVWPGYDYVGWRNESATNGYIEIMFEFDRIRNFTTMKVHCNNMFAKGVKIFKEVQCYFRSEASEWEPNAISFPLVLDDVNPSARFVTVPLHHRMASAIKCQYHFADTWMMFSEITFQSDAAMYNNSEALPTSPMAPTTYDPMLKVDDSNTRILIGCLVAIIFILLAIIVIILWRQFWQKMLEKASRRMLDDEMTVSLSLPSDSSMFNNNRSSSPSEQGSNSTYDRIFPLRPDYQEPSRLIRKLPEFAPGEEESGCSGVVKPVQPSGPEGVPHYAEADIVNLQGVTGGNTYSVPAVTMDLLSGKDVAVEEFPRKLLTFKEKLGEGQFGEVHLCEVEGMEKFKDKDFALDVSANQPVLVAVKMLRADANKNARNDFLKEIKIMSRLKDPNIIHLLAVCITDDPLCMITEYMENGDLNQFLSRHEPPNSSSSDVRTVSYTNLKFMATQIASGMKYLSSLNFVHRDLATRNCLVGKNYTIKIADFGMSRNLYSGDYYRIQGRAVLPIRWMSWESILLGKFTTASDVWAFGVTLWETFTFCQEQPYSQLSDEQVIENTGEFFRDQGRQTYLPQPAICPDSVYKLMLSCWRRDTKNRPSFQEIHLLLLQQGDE
Procedure: as §1

Sequence of Epithelial discoidin domain-containing receptor 1 (Q08345 whole entry, the tested form may be a part): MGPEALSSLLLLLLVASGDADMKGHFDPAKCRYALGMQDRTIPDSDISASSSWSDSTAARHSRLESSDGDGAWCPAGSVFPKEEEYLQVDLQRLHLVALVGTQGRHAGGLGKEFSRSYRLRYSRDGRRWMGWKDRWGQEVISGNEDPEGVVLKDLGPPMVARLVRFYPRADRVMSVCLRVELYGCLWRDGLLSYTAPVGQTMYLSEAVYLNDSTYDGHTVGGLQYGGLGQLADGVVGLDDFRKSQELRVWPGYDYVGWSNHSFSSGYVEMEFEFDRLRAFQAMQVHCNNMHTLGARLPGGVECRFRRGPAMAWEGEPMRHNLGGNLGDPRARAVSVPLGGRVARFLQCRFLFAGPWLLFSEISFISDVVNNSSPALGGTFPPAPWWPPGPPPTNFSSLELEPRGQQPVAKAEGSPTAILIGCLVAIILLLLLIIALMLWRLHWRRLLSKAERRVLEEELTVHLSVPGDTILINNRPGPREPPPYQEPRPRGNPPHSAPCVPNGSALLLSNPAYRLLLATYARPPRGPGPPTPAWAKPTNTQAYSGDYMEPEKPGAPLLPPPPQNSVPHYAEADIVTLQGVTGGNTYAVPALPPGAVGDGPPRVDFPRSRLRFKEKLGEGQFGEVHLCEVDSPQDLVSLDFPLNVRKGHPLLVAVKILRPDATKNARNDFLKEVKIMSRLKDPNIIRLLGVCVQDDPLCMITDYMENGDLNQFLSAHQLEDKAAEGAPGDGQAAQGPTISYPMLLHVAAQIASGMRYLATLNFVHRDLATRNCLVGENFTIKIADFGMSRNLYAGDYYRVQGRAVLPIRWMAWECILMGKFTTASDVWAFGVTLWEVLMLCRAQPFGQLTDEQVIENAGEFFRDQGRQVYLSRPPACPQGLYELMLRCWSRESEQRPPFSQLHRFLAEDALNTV

IC50 [1] [nM]	IC50 [2] [nM]	Compound
< 10		Cc1cccc2c1n(-c1ccc(-c3cncc4c3cnn4C)cn1)c(=O)n2CC(=O)N1CCO[C@H](C(F)(F)F)C1 [US20260055102, Example 61]
> 1000	> 1000	Cc1nc(-n2c(=O)n(CC(=O)NCC(F)(F)F)c3cccc(C)c32)cnc1-c1cncc2c1cnn2C [US20260055102, Example 100]
	> 1000	Cc1cccc2c1n(-c1ccc(-c3cncc4c3cnn4C)cc1)c(=O)n2CC(=O)N1CCC[C@H]1CF [US20260055102, Example 26]
	> 1000	CN(C)c1cccc2c1n(-c1ccc(-c3cncc4c3cnn4C)cc1)c(=O)n2CC(=O)NCC(F)(F)F [US20260055102, Example 80]
